Results: ChEMBL document CHEMBL1152139, “Pterocarpans and flavanones from Sophora flavescens displaying potent neuraminidase inhibition” (Bioorg Med Chem Lett, 2008)
pIC50, pKi: −log10 of the molar value.

Key:
[1] = Inhibition of mouse liver sialidase
[2] = Inhibition of Clostridium perfringens neuraminidase
[3] = Inhibition of Clostridium perfringens neuraminidase by Lineweaver-Burke plot

Row | SMILES | pIC50 [1] | pIC50 [2] | pKi [3]
1 | O=C(O)[C@H]1O[C@@H](Oc2c(O)c(O[C@@H]3O[C@H](C(=O)O)[C@@H](O)[C@H](O)[C@H]3O)c3oc(-c4ccc(O)cc4)cc(=O)c3c2O)[C@H](O)[C@@H](O)[C@@H]1O | 4.40 |  | 
2 | C=C(C)[C@H](CCC(C)(C)O)Cc1c(O)cc(OC)c2c1O[C@H](c1ccc(O)cc1O)CC2=O [KURARINOL] |  | 4.77 | 4.71
3 | C=C(C)C(CC=C(C)C)Cc1c(O)cc(OC)c2c1O[C@H](c1ccc(O)cc1O)CC2=O (stereo not given in full) [KURARINONE] |  | 4.82 | 4.73
4 | C=C(C)[C@H](CC=C(C)C)Cc1c(O)cc(O)c2c1O[C@H](c1ccccc1O)CC2=O [KUSHENOL A] |  | 4.83 | 4.77
5 | C=C(C)[C@H](CCC(C)(C)O)Cc1c(O)cc(O)c2c1O[C@H](c1ccccc1O)CC2=O [KUSHENOL T] |  | 4.92 | 4.97
6 | Oc1ccc2c(c1)OC[C@H]1c3cc4c(cc3O[C@@H]21)OCO4 [MAACKIAIN] |  | 5.49 | 5.68
7 | O=c1c2cc(O)c(O)cc2oc2cc(O)c([C@@H]3O[C@H](CO)[C@@H](O)[C@H](O)[C@H]3O)c(O)c12 [MANGIFERIN] |  | 4.79 | 
8 | C=C(C)[C@H](CCC(C)(C)O)Cc1c(O)cc(O)c2c1O[C@H](c1ccc(O)cc1O)CC2=O [NORKURARINOL] |  | 4.74 | 4.64
9 | COc1ccc2c(c1)OC[C@H]1c3cc4c(cc3O[C@@H]21)OCO4 [PTEROCARPIN] |  | 5.85 | 5.77
10 | C=C(C)[C@H](CC=C(C)C)Cc1c(O)cc(O)c2c1O[C@H](c1ccc(O)cc1O)CC2=O [SOPHORAFLAVANONE G] |  | 4.87 | 4.70
11 | OC[C@H]1O[C@@H](Oc2ccc3c(c2)OC[C@H]2c4cc5c(cc4O[C@@H]32)OCO5)[C@H](O)[C@@H](O)[C@@H]1O [TRIFOLIRHIZIN] |  | 3.63 | 3.72
